These results are taken from PubChem BioAssay (NCI).

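Values below derive from 48-hour exposures of cells grown in 96-well plates, with endpoints linearly interpolated between the two concentrations bracketing the appropriate inhibition level. TGI is the concentration that stops growth completely.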

Test systems include ACHN renal; IGROV1 ovarian; BT-549 breast; UACC-257 melanoma; NCI-H23 lung; SNB-19 CNS; SF-268 CNS; HCT-116 colon; 786-0 renal; T-47D breast; CAKI-1 renal; UACC-62 melanoma; KM12 colon; SF-295 CNS; SN12C renal; K-562 leukemia; SR leukemia.
What all share (assay): NCI-60 cell line screen, 48 h

As for `CCN(CC)CCCC(C)NC(=O)c1cc(-c2nccn2C)nc2ccc(C)cc12` (centres undefined), the TGI with ACHN renal, with IGROV1 ovarian, in the test on BT-549 breast, in the test on UACC-257 melanoma, with NCI-H23 lung and with SNB-19 CNS was over 100 µM throughout. Besides, the TGI with SF-268 CNS, in the test on HCT-116 colon, in the test with 786-0 renal, with T-47D breast, in the test on CAKI-1 renal and in the test with UACC-62 melanoma was over 100 µM each time. Moreover, in the test with KM12 colon, the TGI is over 100 µM.
As for `COc1ccc(C2=NN(C(=O)c3ccccc3)C(O)(c3cc(F)c(Cl)cc3Cl)C2)cc1OC` (centres undefined), the TGI in the test on SF-295 CNS, in the test with ACHN renal, in the test with IGROV1 ovarian, in the test with BT-549 breast, with UACC-257 melanoma and in the test on SN12C renal was over 100 µM each time. Besides, the TGI in the test on NCI-H23 lung, in the test on SNB-19 CNS, with SF-268 CNS, with K-562 leukemia, in the test on HCT-116 colon and with 786-0 renal was over 100 µM in each case. Further, the TGI in the test on T-47D breast, in the test with CAKI-1 renal, with UACC-62 melanoma and with KM12 colon was over 100 µM each time.
As for `Cc1[nH]c2ncn3ncnc3c2c1Cc1ccccc1`, the TGI with SF-295 CNS, in the test on ACHN renal, with IGROV1 ovarian, in the test with BT-549 breast, in the test on UACC-257 melanoma and with SN12C renal was over 100 µM each time. The TGI in the test with NCI-H23 lung, in the test with SNB-19 CNS, in the test with SF-268 CNS, in the test on HCT-116 colon, in the test on 786-0 renal and with T-47D breast was over 100 µM throughout. The TGI with CAKI-1 renal, in the test with UACC-62 melanoma and in the test on KM12 colon was over 100 µM throughout.
Consider `OC(c1ccc(F)cc1)C(F)(F)c1nc(-c2ccccc2)no1` (centres undefined), for which the TGI is 67.2 µM in the test on ACHN renal; over 100 µM in the test with IGROV1 ovarian; 36.8 µM with BT-549 breast; 43.4 µM in the test with UACC-257 melanoma; 39.8 µM with SN12C renal; 74.7 µM with NCI-H23 lung. Moreover, the TGI was 64.2 µM in the test on SNB-19 CNS; 62.9 µM with SF-268 CNS; 36.7 µM with HCT-116 colon; 44.2 µM in the test with 786-0 renal; 68.3 µM with T-47D breast; 72.1 µM with CAKI-1 renal. The compound also showed a TGI in the test on UACC-62 melanoma of 37.7 µM.
`Cc1nc2c(=O)[nH]c3ccccc3c2o1`: the TGI in the test with SF-295 CNS, in the test on ACHN renal, in the test on IGROV1 ovarian, in the test on BT-549 breast, in the test on UACC-257 melanoma and in the test on SN12C renal was over 100 µM throughout. In addition, the TGI in the test with NCI-H23 lung, in the test with SNB-19 CNS, in the test with SF-268 CNS, in the test on HCT-116 colon, with 786-0 renal and in the test on T-47D breast was over 100 µM each time. In addition, the TGI with CAKI-1 renal, in the test on UACC-62 melanoma and with KM12 colon was over 100 µM each time.
On to `O=c1c2c(sc3ccccc13)NCN(CCc1ccccc1)C2`, for which the TGI is 43.5 µM in the test with SF-295 CNS; over 100 µM in the test with SR leukemia; over 100 µM with ACHN renal; over 100 µM with IGROV1 ovarian; over 100 µM in the test on BT-549 breast; over 100 µM in the test on UACC-257 melanoma. Further, the TGI with SN12C renal was over 100 µM; in the test with NCI-H23 lung it was over 100 µM; with SNB-19 CNS, over 100 µM; in the test with K-562 leukemia it was 40.8 µM; in the test with HCT-116 colon, over 100 µM; in the test with 786-0 renal it was over 100 µM. Besides, the TGI with CAKI-1 renal, in the test on UACC-62 melanoma and in the test on KM12 colon was over 100 µM in each case.
Consider `CC1(C)N(OC2CCCCO2)C(c2ccccc2)C(c2ccccc2)=[N+]1[O-]` (centres undefined), for which the TGI in the test on SF-295 CNS, in the test on SR leukemia, in the test with ACHN renal, with IGROV1 ovarian, in the test on BT-549 breast and in the test with UACC-257 melanoma was over 100 µM each time. Besides, the TGI in the test with SN12C renal, in the test with NCI-H23 lung, in the test with SNB-19 CNS, in the test on K-562 leukemia, with HCT-116 colon and in the test on 786-0 renal was over 100 µM in each case. Also, the TGI with CAKI-1 renal, in the test on UACC-62 melanoma and in the test with KM12 colon was over 100 µM each time.
Turning to `Cc1cccc2nc3n(c12)C(=O)c1ccccc1-3`, the TGI with SF-295 CNS, with SR leukemia, in the test on ACHN renal, in the test on IGROV1 ovarian, with BT-549 breast and with UACC-257 melanoma was over 100 µM in each case. In addition, the TGI with SN12C renal, in the test on NCI-H23 lung, with SNB-19 CNS, in the test with SF-268 CNS, in the test with K-562 leukemia and in the test on HCT-116 colon was over 100 µM throughout. Also, the TGI in the test on 786-0 renal, in the test with CAKI-1 renal, with UACC-62 melanoma and in the test on KM12 colon was over 100 µM in each case.
`Cc1nc2c(O)cccc2c(=O)[nH]1`: the TGI was over 1000 µM in the test with SF-295 CNS; over 1000 µM in the test on SR leukemia; over 1000 µM with ACHN renal; over 1000 µM in the test on IGROV1 ovarian; 634 µM with BT-549 breast; over 1000 µM in the test on UACC-257 melanoma. Besides, the TGI in the test with SN12C renal, in the test on NCI-H23 lung, with SNB-19 CNS, in the test on SF-268 CNS, in the test on K-562 leukemia and with HCT-116 colon was over 1000 µM throughout. Also, the TGI with 786-0 renal, in the test on CAKI-1 renal, in the test on UACC-62 melanoma and with KM12 colon was over 1000 µM in each case.
